A short description of data set [1]: Pharmacokinetic study in rat plasma after oral administration of Nauclea officinalis extracts (HPLC-MS/MS). The settings on record: oral Nauclea officinalis extracts 2 g/kg, noncompartment model, mean ± SD; for Cmax / MRT last / Vd/F / half-life: male, Sprague-Dawley; for Cmax: n = 6, read-out: C max (maximum plasma concentration); for MRT last: n = 6, read-out: MRT (0 − t); for Vd/F: n = 6, read-out: Vz/F (apparent distribution volume); for half-life: n = 6, read-out: t1/2 (elimination half-life) (converted). The class given is in vivo, Male Sprague–Dawley (SD) rats. As to the method:
(§1) Chromatographic analysis was performed on the LC-20ADXR System (Shimadzu, Japan). The Phenomenex Kinete EVO C18 100 Å (50 mm × 2.1 mm, 5 μm) column was used as the analytical column maintained at 40°C with (A) 0.1% formic acid aqueous solution and (B) acetonitrile as the mobile phase. […] The flow rate was 0.8 mL/min, and the injection volume was 5 μL.
(§2) Mass spectrometric detection was performed on an AB-SCIEX API 4000 mass spectrometer (AB SCIEX, Singapore) with ESI in negative ion multiple reaction monitoring (MRM) mode. The optimized instrument parameters were as follows: nebulizer gas: 50 psi, heated by N2 gas: 55 psi, ion spray voltage: −4500 V and temperature: 550°C; nebulizer, blowback gas, and collision gas were nitrogen; declustering potential (DP), collision energy (CE), and collision cell exit potential (CXP) of the four analytes and chloramphenicol (IS) are shown in Table 1.
Six male SD rats were tested in pharmacokinetics studies. […] The blood samples (approximately 0.5 mL) were collected via the venous plexus of the eye socket at 0.083, 0.25, 0.5, 1, 2, 4, 6, 8, […], 12, and 24 h under anesthesia. Next, each sample was immediately centrifuged at 4000 rpm for 10 min to acquire the plasma. The plasma was transferred to new tubes and stored at −80°C until further use. The pharmacokinetics parameters of the four compounds in rat plasma were calculated by the noncompartment model using Drug and Statistics (DAS 3.3.0) software (Beijing, China).
Pharmacokinetic parameters of four compounds were calculated by noncompartmental model using DAS 3.3.0 software.

A short description of data set [2]: Tissue distribution in rats after oral administration of Nauclea officinalis extracts (HPLC-MS/MS). The class given is in vivo. The procedure:
as §1, §2
Thirty rats were divided into five groups (n = 6) at random, which were orally administered Nauclea officinalis extracts at a dose of 2 g/kg for tissue distribution conducted at 0.5, 1, 2, 4, and 6 h. During the collection, the heart, liver, spleen, lung, kidney, stomach, small intestine, and brain were rinsed with physiological saline solution to get rid of the blood or content and blotted on filter paper and then weighed. Each tissue sample was accurately weighed and homogenized by using physiological saline at four times the tissue weight (w/v). The homogenates were stored at −80°C until analysis.
Drugs enter tissues that receive high blood flow first, followed by those that receive low blood flow.

As for `O=C(/C=C/c1ccc(O)c(O)c1)O[C@@H]1C[C@](O)(C(=O)O)C[C@@H](O)[C@H]1O` [Chlorogenic acid], in data set [1], the Cmax turned out to be 242 ± 84.7 ng/mL, the MRT last amounted to 5.33 ± 0.65 h, the Vd/F turned out to be 916 ± 452 L/kg and the half-life was 10.6 ± 6.21 h. In addition, in data set [1] (n = 6), the “AUC (0 − ∞)” value was 554.37 ± 166.14 μg/L∗h and the “CL (clearance rate)” value is 1049 ± 266.7 mL/min/kg. The “CL (clearance rate)” value in data set [1] (n = 6, listed as chlorogenic acid) was 1049 ± 266.6 mL/min/kg. Further, in data set [2] (after oral extract 2 g/kg), the “Peak concentration in most tissues versus plasma” value was “much lower than in plasma”.
Turning to `C/C=C1/COC(=O)[C@H]2C(=O)N3CCc4c([nH]c5ccccc45)[C@@H]3C[C@@H]12` [Naucleactonin C], in data set [1], the Cmax turned out to be 1010 ± 369 ng/mL, the MRT last was found to be 4.76 ± 1.57 h, the Vd/F amounted to 0.966 ± 0.359 L/kg and the half-life was 4.59 ± 1.65 h. Moreover, in data set [1] (n = 6), the “AUC (0 − t)” value is on record as 5281.36 ± 440.02 μg/L∗h, the “AUC (0 − ∞)” value is 5405.02 ± 416.99 μg/L∗h, the “CL (clearance rate)” value was found to be 2.5 ± 0.17 mL/min/kg and the “T max (time to Cmax)” value was found to be 1.66 h. In addition, the “Abundance in small intestine versus stomach” value in data set [2] (after oral extract 2 g/kg) is listed as “more abundant in the small intestine than in the stomach”. Also, the “Detection in studied tissues” value in data set [2] (heart, liver, spleen, lung, kidney, small intestine, stomach, brain, 0.5-6 h after oral extract 2 g/kg) was “could be detected in all studied tissue”.

(Values after paper PMC9797307, “Measurement of Pharmacokinetics and Tissue Distribution of Four Compounds from Nauclea officinalis in Rat Plasma and Tissues through HPLC-MS/MS” (Journal of Analytical Methods in Chemistry, 2022).)
